Laboratory results as given in paper PMC12521730, “Quantitative dual-isotope preclinical SPECT/CT imaging and biodistribution of the mercury-197m/g theranostic pair with [^197m/gHg]HgCl2 and a [^197m/gHg]Hg-tetrathiol complex as a platform for radiopharmaceutical development” (EJNMMI Radiopharmacy and Chemistry, 2025).

Test: Ex vivo biodistribution (gamma counter)
Assay type: in vivo, healthy male C57BL/6 mice
Details: Hg-197m, 2 h post administration
Experimental: For animal injection, the tracer was prepared at high molar activity. Radiolabeling of H4Tetrathiol (10^–2 M in DMSO; 40 μL for imaging, 20 μL for bioD) (or DMSO, for [^197m/gHg]HgCl2 mice) with [^197m/gHg]HgCl2 (imaging: 26.7 MBq total m + g, 62 μL; bioD: 13.04 MBq total m + g, 31 μL) was performed in a mixture of ammonium acetate buffer (1 M; pH 7; 198 μL for imaging or 149 μL for bioD) and 6 M NaOH (72 μL or 38 μL required to achieve a pH of 7.5 after addition of activity, for imaging or BioD labeling, respectively). The reaction was allowed to stand for 1 h at 37 °C and quantitative (> 99%) non-isolated percentage radiochemical yield (%RCY) was confirmed via the iTLC methods mentioned above. Further, 100 µL of the reaction was diluted with 50 µL of PBS Tween-20 (0.01 M sodium phosphate, 0.15 M NaCl, 0.05% Tween-20) for imaging mice, or 50 µL of the reaction was diluted with 100 µL of PBS Tween-20 for BioD mice. The tracers were prepared immediately before injection to avoid radiolysis and minimize the tracer loss to any surfaces due to its lipophilicity. The injected doses of each isomer, ^197mHg and ^197gHg, were quantified by measuring an aliquot of known volume of each tracer preparation via HPGe gamma spectroscopy and decay corrected for time of injection using the Eqs. (1) and (2).
The study was conducted in compliance with the guidelines set by the Canadian Council on Animal Care (CCAC) and approved by the Animal Care Committee (ACC) at the University of British Columbia (A20-0132). A total of eight healthy male C57BL/6 mice weighing approximately 30 g for group 1 and 25 g for group 2 were used in the study. The mice were divided into two experimental groups: group 1 (n = 4) received free [^197m/gHg]HgCl2, while group 2 (n = 4) received [^197m/gHg]Hg-Tetrathiol. Within each group, one mouse was allocated for imaging, while the rest were designated for ex vivo biodistribution analysis. For SPECT imaging, the designated mice were anesthetized using isoflurane via a precision vaporizer. […] Once anesthetized, each imaging mouse received an intravenous (IV) injection via the lateral tail vein of 150 μL of [^197m/gHg]HgCl2 (0.492 MBq ^197mHg + 3.171 MBq ^197gHg) or [^197m/gHg]Hg-Tetrathiol (0.899 MBq ^197mHg + 4.230 MBq ^197gHg) in PBS Tween-20 (0.01 M Na Phosphate, 0.15 M NaCl, 0.05% Tween-20).
Mice received an IV injection of [^197m/gHg]HgCl2 (0.275 MBq ^197mHg + 1.758 MBq ^197gHg, 150 μL) or [^197m/gHg]Hg-Tetrathiol (0.384 MBq ^197mHg + 1.733 MBq ^197gHg, 150 μL) (n = 3 per group) via the lateral tail vein using a Tailveiner restrainer. After the injection, the mice were returned to their experimental cages and allowed unrestricted movement. Biodistribution studies were conducted 2 h after administration. Mice were humanely euthanized with an overdose of isoflurane followed by cardiac puncture to collect blood pool activity. The organs of interest were fully extracted, cleaned of blood without rinsing, weighed, and analysed for radioactivity using a calibrated gamma counter with the 55–93 keV energy window for ^197gHg and the 110–160 keV energy window for ^197mHg (Packard Cobra II, Perkin Elmer, Waltham, MA, USA). The stomach and intestines were carefully cleaned prior to analysis to remove residual contents. For tissues and fluids that could not be fully removed (muscle, blood and bone) activity values were extrapolated based on standardised organ weights for age- and sex-matched mice tables to ensure accurate normalization (Davies and Morris [1993]; Foster et al. [2014]). The stomach and whole intestines were cleaned before analysis. The radioactivity measurements were decay corrected for time of injection using the Eqs. (1) and (2). The results are reported as the percentage of the injected activity per gram of tissue (%IA/g) and percentage of the injected activity per tissue (%IA/organ).

O=C(CC[S-])OCC(COC(=O)CC[S-])(COC(=O)CC[S-])COC(=O)CC[S-].[Hg+2] [[^197m/gHg]Hg-Tetrathiol]
Animal 2 (%IA/g) m: blood: 0.13 %IA/g | Animal 2 (%IA/g) m: bone: 1.62 %IA/g | Animal 2 (%IA/g) m: brain: 0.02 %IA/g | Animal 2 (%IA/g) m: feces: 0.05 %IA/g | Animal 2 (%IA/g) m: heart: 0.59 %IA/g | Animal 2 (%IA/g) m: kidneys: 2.35 %IA/g | Animal 2 (%IA/g) m: large intestine: 0.05 %IA/g | Animal 2 (%IA/g) m: lungs: 7.04 %IA/g | Animal 2 (%IA/g) m: muscle: 0.02 %IA/g | Animal 2 (%IA/g) m: pancreas: 0.04 %IA/g | Animal 2 (%IA/g) m: small intestine: 0.08 %IA/g | Animal 2 (%IA/g) m: spleen: 79.95 %IA/g | Animal 2 (%IA/g) m: stomach: 0.37 %IA/g | Animal 2 (%IA/g) m: tail: 1.39 %IA/g | Animal 2 (%IA/g) m: urine: 0.03 %IA/g | Animal 3 (%IA/g) m: bladder: 0.04 %IA/g | Animal 3 (%IA/g) m: blood: 0.15 %IA/g | Animal 3 (%IA/g) m: bone: 1.38 %IA/g | Animal 3 (%IA/g) m: brain: 0.04 %IA/g | Animal 3 (%IA/g) m: feces: 0.01 %IA/g | Animal 3 (%IA/g) m: heart: 0.70 %IA/g | Animal 3 (%IA/g) m: kidneys: 3.71 %IA/g | Animal 3 (%IA/g) m: large intestine: 0.12 %IA/g | Animal 3 (%IA/g) m: lungs: 9.69 %IA/g | Animal 3 (%IA/g) m: muscle: 0.02 %IA/g | Animal 3 (%IA/g) m: pancreas: 0.09 %IA/g | Animal 3 (%IA/g) m: small intestine: 0.10 %IA/g | Animal 3 (%IA/g) m: spleen: 108.27 %IA/g | Animal 3 (%IA/g) m: stomach: 1.02 %IA/g | Animal 3 (%IA/g) m: tail: 0.66 %IA/g | Animal 3 (%IA/g) m: urine: 0.03 %IA/g | Animal 4 (%IA/g) m: bladder: 0.07 %IA/g | Animal 4 (%IA/g) m: blood: 0.12 %IA/g | Animal 4 (%IA/g) m: bone: 1.62 %IA/g | Animal 4 (%IA/g) m: brain: 0.02 %IA/g | Animal 4 (%IA/g) m: feces: 0.01 %IA/g | Animal 4 (%IA/g) m: heart: 0.64 %IA/g | Animal 4 (%IA/g) m: kidneys: 3.03 %IA/g | Animal 4 (%IA/g) m: large intestine: 0.05 %IA/g | Animal 4 (%IA/g) m: lungs: 7.69 %IA/g | Animal 4 (%IA/g) m: muscle: 0.02 %IA/g | Animal 4 (%IA/g) m: pancreas: 0.05 %IA/g | Animal 4 (%IA/g) m: small intestine: 0.15 %IA/g | Animal 4 (%IA/g) m: spleen: 101.18 %IA/g | Animal 4 (%IA/g) m: stomach: 0.12 %IA/g | Animal 4 (%IA/g) m: tail: 7.32 %IA/g | Animal 4 (%IA/g) m: urine: 0.04 %IA/g | Average Hg-197m (%IA/g): bladder: 0.044 %IA/g | Average Hg-197m (%IA/g): blood: 0.13 %IA/g | Average Hg-197m (%IA/g): bone: 1.68 %IA/g | Average Hg-197m (%IA/g): brain: 0.028 %IA/g | Average Hg-197m (%IA/g): feces: 0.026 %IA/g | Average Hg-197m (%IA/g): heart: 0.60 %IA/g | Average Hg-197m (%IA/g): kidneys: 3.65 %IA/g | Average Hg-197m (%IA/g): large intestine: 0.091 %IA/g | Average Hg-197m (%IA/g): lungs: 8.38 %IA/g | Average Hg-197m (%IA/g): muscle: 0.017 %IA/g | Average Hg-197m (%IA/g): pancreas: 0.056 %IA/g | Average Hg-197m (%IA/g): small intestine: 0.12 %IA/g | Average Hg-197m (%IA/g): spleen: 91.06 %IA/g | Average Hg-197m (%IA/g): stomach: 0.42 %IA/g | Average Hg-197m (%IA/g): tail: 2.77 %IA/g | Average Hg-197m (%IA/g): urine: 0.033 %IA/g
